# In EP4721741A1, “PHARMACEUTICAL COMPOSITION, TOPICAL PREPARATION, AND PREPARATION METHOD THEREFOR AND USE THEREOF” (Lynk Pharmaceuticals Co. Ltd., priority 2023, dated 2024):
# Experiment: Pharmacokinetic (PK) study after topical application: plasma, stratum corneum, epidermis, dermis
# Assay type: in vivo, Bama miniature pigs
# Protocol: Twenty-four (12 per sex) male and female Bama miniature pigs were divided into 5 groups. The ointment was applied to an estimated 10% of the animal's body surface area.
# Animals in group 1 and group 2 received a single topical application of sample 2A and sample 2B, respectively. Plasma, stratum corneum, epidermis, and dermis samples were collected before administration (0 hour, plasma only) and at 0.5, 1, 4, 8, 12, and 24 hours after administration.
# Group 3 animals were topically administered ointment sample 2B once daily for 7 consecutive days. Plasma samples were collected on day 1 and day 7 before administration (0) and 0.5, 1, 4, 8, 12, and 24 hours after administration; and on days 3, 4, 5, and 6 before administration (0). […]
# Group 5 animals received a single topical application of sample 3a (administered at 25 µL/m^2 with a concentration of 6 mg/mL), and blood and skin samples were collected before administration (0) and at 0.5, 1, 3, and 6 hours after administration. […] The homogenized samples were extracted using three volumes of acetonitrile and quantified against a standard curve utilizing an LC-MS/MS system.
# The concentrations of the active pharmaceutical ingredient in plasma, stratum corneum, epidermis, and dermis samples were determined using a high-performance liquid chromatography-[…] (LC-MS/MS) method.
smiles,measurement,setting,value
Cc1cnc(Nc2cnn(C3CC(C)(C)OC(C)(C)C3)c2)nc1-c1ccc(C(=O)NCC#N)cc1 [active pharmaceutical ingredient],"accumulation: exposure levels (AUC0-last and Cmax) in the stratum corneum, epidermis, and dermis","7 consecutive days of once-daily topical application of the ointment at 12 µg/cm^2, both sexes",no accumulation
same,Concentrations in plasma samples,"all plasma samples, topical application, Bama miniature pigs",below the lower limit of quantification
